From the OligoGym collection
Oligonucleotides are written 5' to 3', each unit as a sugar letter and its base; * is a phosphorothioate linkage, no mark a phosphodiester; rarer units and linkages stand in square brackets, end groups in braces. Plain capitals give the bases only. d = 2'-deoxy (DNA); r = 2'-OH (RNA)

Biological target: not listed separately
Assay: reporter assay of Huesken 2005
Details: siRNA
Further: test concentration or dose not given here.

Substance	normalised inhibition (eCFP-eYFP dual reporter) [%]
sense rUrUrGrCrCrUrCrCrCrUrUrGrArGrGrCrGrUrCdTdT / antisense rGrArCrGrCrCrUrCrArArGrGrGrArGrGrCrArAdTdC	37.3
sense rUrUrGrCrUrCrUrCrUrGrGrArGrUrCrUrCrCrCdTdT / antisense rGrGrGrArGrArCrUrCrCrArGrArGrArGrCrArAdGdA	58.4
sense rUrUrUrArGrGrGrUrGrCrCrCrArCrUrUrArGrGdTdT / antisense rCrCrUrArArGrUrGrGrGrCrArCrCrCrUrArArAdAdG	48.8
sense rUrUrUrGrCrArGrUrUrGrGrArGrArUrUrCrArGdTdT / antisense rCrUrGrArArUrCrUrCrCrArArCrUrGrCrArArAdCdG	48.6

Biological target: UBE2L6
Assay: reporter assay of Huesken 2005
Details: siRNA

Substance	normalised inhibition (eCFP-eYFP dual reporter) [%]
sense rArArArGrCrCrUrUrCrArArCrCrUrGrCrGrCrAdTdT / antisense rUrGrCrGrCrArGrGrUrUrGrArArGrGrCrUrUrUdCdA	69.8
sense rArArCrCrArArGrArUrCrUrArCrCrArCrCrCrCdTdT / antisense rGrGrGrGrUrGrGrUrArGrArUrCrUrUrGrGrUrUdGdT	43.6
sense rArArCrCrUrGrCrGrCrArUrCrArGrCrUrUrCrCdTdT / antisense rGrGrArArGrCrUrGrArUrGrCrGrCrArGrGrUrUdGdA	51.6
sense rArArCrUrGrGrArArGrCrCrUrUrGrCrArCrCrAdTdT / antisense rUrGrGrUrGrCrArArGrGrCrUrUrCrCrArGrUrUdCdT	77.8
sense rArArUrGrCrCrGrArArGrArGrUrUrCrArCrCrCdTdT / antisense rGrGrGrUrGrArArCrUrCrUrUrCrGrGrCrArUrUdCdT	51.6
sense rArCrArCrArGrArArUrCrCrGrGrArGrCrUrGrUdTdT / antisense rArCrArGrCrUrCrCrGrGrArUrUrCrUrGrUrGrUdCdA	85.4
sense rArCrCrArArGrArUrCrUrArCrCrArCrCrCrCrAdTdT / antisense rUrGrGrGrGrUrGrGrUrArGrArUrCrUrUrGrGrUdTdG	90.8
sense rArCrCrArCrCrCrCrArArCrGrUrGrGrArCrGrAdTdT / antisense rUrCrGrUrCrCrArCrGrUrUrGrGrGrGrUrGrGrUdAdG	64.9
sense rArCrCrCrGrArCrCrArArCrCrUrCrCrCrUrArCdTdT / antisense rGrUrArGrGrGrArGrGrUrUrGrGrUrCrGrGrGrUdAdG	64
sense rArCrCrUrCrGrCrUrGrArCrCrUrGrCrUrGrArCdTdT / antisense rGrUrCrArGrCrArGrGrUrCrArGrCrGrArGrGrUdCdC	58.6
sense rArCrCrUrGrCrGrCrArUrCrArGrCrUrUrCrCrCdTdT / antisense rGrGrGrArArGrCrUrGrArUrGrCrGrCrArGrGrUdTdG	70.9
sense rArCrCrUrGrCrGrGrArArCrCrUrGrUrCrCrArGdTdT / antisense rCrUrGrGrArCrArGrGrUrUrCrCrGrCrArGrGrUdAdT	73.8
sense rArCrUrUrGrCrCrArArGrUrCrCrUrGrGrArGrGdTdT / antisense rCrCrUrCrCrArGrGrArCrUrUrGrGrCrArArGrUdCdT	31.8
sense rArGrCrGrArUrGrArUrGrCrCrArArUrGrUrCrCdTdT / antisense rGrGrArCrArUrUrGrGrCrArUrCrArUrCrGrCrUdGdG	87.3
sense rArGrGrGrArGrCrCrCrCrUrGrCrGrGrArUrGrGdTdT / antisense rCrCrArUrCrCrGrCrArGrGrGrGrCrUrCrCrCrUdGdA	60.1
sense rArGrUrArUrCrCrGrUrUrCrArArGrCrCrUrCrCdTdT / antisense rGrGrArGrGrCrUrUrGrArArCrGrGrArUrArCrUdCdC	53.7
sense rArGrUrUrCrArCrCrCrUrCrCrGrArUrUrCrGrGdTdT / antisense rCrCrGrArArUrCrGrGrArGrGrGrUrGrArArCrUdCdT	55.3
sense rArUrCrArGrCrArGrUrGrArGrArArCrUrGrGrAdTdT / antisense rUrCrCrArGrUrUrCrUrCrArCrUrGrCrUrGrArUdGdA	82.9
sense rArUrCrArGrCrUrUrCrCrCrGrCrCrGrGrArGrUdTdT / antisense rArCrUrCrCrGrGrCrGrGrGrArArGrCrUrGrArUdGdC	52.3
sense rArUrGrGrArCrCrUrCrGrCrUrGrArCrCrUrGrCdTdT / antisense rGrCrArGrGrUrCrArGrCrGrArGrGrUrCrCrArUdCdC	43.8
sense rArUrUrCrArCrArArCrCrArArGrArUrCrUrArCdTdT / antisense rGrUrArGrArUrCrUrUrGrGrUrUrGrUrGrArArUdTdT	51
sense rCrArArArUrUrCrArCrArArCrCrArArGrArUrCdTdT / antisense rGrArUrCrUrUrGrGrUrUrGrUrGrArArUrUrUrGdAdT	85.9
sense rCrArCrArArCrCrArArGrArUrCrUrArCrCrArCdTdT / antisense rGrUrGrGrUrArGrArUrCrUrUrGrGrUrUrGrUrGdAdA	45.8
sense rCrArCrArGrArArUrCrCrGrGrArGrCrUrGrUrUdTdT / antisense rArArCrArGrCrUrCrCrGrGrArUrUrCrUrGrUrGdTdC	97.8

Substance	normalised inhibition (eCFP-eYFP dual reporter) [%]
sense rCrArGrCrArGrUrGrArGrArArCrUrGrGrArArGdTdT / antisense rCrUrUrCrCrArGrUrUrCrUrCrArCrUrGrCrUrGdAdT	74.9
sense rCrArUrCrArGrCrArGrUrGrArGrArArCrUrGrGdTdT / antisense rCrCrArGrUrUrCrUrCrArCrUrGrCrUrGrArUrGdAdT	65.7
sense rCrCrArCrCrCrCrArArCrGrUrGrGrArCrGrArGdTdT / antisense rCrUrCrGrUrCrCrArCrGrUrUrGrGrGrGrUrGrGdTdA	67.6
sense rCrCrArUrArCrCrUrGrCrGrGrArArCrCrUrGrUdTdT / antisense rArCrArGrGrUrUrCrCrGrCrArGrGrUrArUrGrGdGdG	88.3
sense rCrCrCrArUrCrArUrCrArGrCrArGrUrGrArGrAdTdT / antisense rUrCrUrCrArCrUrGrCrUrGrArUrGrArUrGrGrGdCdA	74
sense rCrCrCrArUrGrArUrCrArArArUrUrCrArCrArAdTdT / antisense rUrUrGrUrGrArArUrUrUrGrArUrCrArUrGrGrGdAdG	95.2
sense rCrCrCrUrGrCrGrGrArUrGrGrArCrCrUrCrGrCdTdT / antisense rGrCrGrArGrGrUrCrCrArUrCrCrGrCrArGrGrGdGdC	59.7
sense rCrCrGrArArGrArGrUrUrCrArCrCrCrUrCrCrGdTdT / antisense rCrGrGrArGrGrGrUrGrArArCrUrCrUrUrCrGrGdCdA	62.6
sense rCrCrGrArArUrArUrCrArGrGrGrArGrCrCrCrCdTdT / antisense rGrGrGrGrCrUrCrCrCrUrGrArUrArUrUrCrGrGdTdC	50
sense rCrCrUrArCrCrCrGrArCrCrArArCrCrUrCrCrCdTdT / antisense rGrGrGrArGrGrUrUrGrGrUrCrGrGrGrUrArGrGdAdG	55.6
sense rCrCrUrGrCrGrGrArUrGrGrArCrCrUrCrGrCrUdTdT / antisense rArGrCrGrArGrGrUrCrCrArUrCrCrGrCrArGrGdGdG	81.8
sense rCrCrUrGrUrCrCrArGrCrGrArUrGrArUrGrCrCdTdT / antisense rGrGrCrArUrCrArUrCrGrCrUrGrGrArCrArGrGdTdT	77.6
sense rCrGrArUrGrArUrGrCrCrArArUrGrUrCrCrUrGdTdT / antisense rCrArGrGrArCrArUrUrGrGrCrArUrCrArUrCrGdCdT	97.1
sense rCrGrCrUrCrUrCrCrUrCrCrUrArCrCrCrGrArCdTdT / antisense rGrUrCrGrGrGrUrArGrGrArGrGrArGrArGrCrGdTdG	73.7
sense rCrGrGrArUrGrGrArCrCrUrCrGrCrUrGrArCrCdTdT / antisense rGrGrUrCrArGrCrGrArGrGrUrCrCrArUrCrCrGdCdA	71.6
sense rCrUrCrCrUrArCrCrCrGrArCrCrArArCrCrUrCdTdT / antisense rGrArGrGrUrUrGrGrUrCrGrGrGrUrArGrGrArGdGdA	63.5
sense rCrUrGrArCrArCrArGrArArUrCrCrGrGrArGrCdTdT / antisense rGrCrUrCrCrGrGrArUrUrCrUrGrUrGrUrCrArGdCdA	79.6
sense rCrUrGrCrGrGrArArCrCrUrGrUrCrCrArGrCrGdTdT / antisense rCrGrCrUrGrGrArCrArGrGrUrUrCrCrGrCrArGdGdT	76.1
sense rCrUrGrGrArGrGrCrCrCrUrCrArArUrGrUrGrCdTdT / antisense rGrCrArCrArUrUrGrArGrGrGrCrCrUrCrCrArGdGdA	48.2
sense rCrUrUrCrCrCrGrCrCrGrGrArGrUrArUrCrCrGdTdT / antisense rCrGrGrArUrArCrUrCrCrGrGrCrGrGrGrArArGdCdT	38.1
sense rCrUrUrGrCrArCrCrArArGrArCrUrUrGrCrCrAdTdT / antisense rUrGrGrCrArArGrUrCrUrUrGrGrUrGrCrArArGdGdC	89.6
sense rGrArGrCrCrCrCrUrGrCrGrGrArUrGrGrArCrCdTdT / antisense rGrGrUrCrCrArUrCrCrGrCrArGrGrGrGrCrUrCdCdC	55.9
sense rGrArUrUrUrGrCrCrUrGrCrCrCrArUrCrArUrCdTdT / antisense rGrArUrGrArUrGrGrGrCrArGrGrCrArArArUrCdTdG	71.3
sense rGrCrGrArUrGrArUrGrCrCrArArUrGrUrCrCrUdTdT / antisense rArGrGrArCrArUrUrGrGrCrArUrCrArUrCrGrCdTdG	107
